BindingDB's records for doi:10.1016/j.bmcl.2012.03.099 (Rhône-Poulenc Rorer, 2012)

Molecular target: Mitogen-activated protein kinase 14 (Homo sapiens) (UniProt Q16539)
Assay: Inhibition of p38alpha

Mitogen-activated protein kinase 14 (Homo sapiens), sequence (Q16539 whole entry, looked up): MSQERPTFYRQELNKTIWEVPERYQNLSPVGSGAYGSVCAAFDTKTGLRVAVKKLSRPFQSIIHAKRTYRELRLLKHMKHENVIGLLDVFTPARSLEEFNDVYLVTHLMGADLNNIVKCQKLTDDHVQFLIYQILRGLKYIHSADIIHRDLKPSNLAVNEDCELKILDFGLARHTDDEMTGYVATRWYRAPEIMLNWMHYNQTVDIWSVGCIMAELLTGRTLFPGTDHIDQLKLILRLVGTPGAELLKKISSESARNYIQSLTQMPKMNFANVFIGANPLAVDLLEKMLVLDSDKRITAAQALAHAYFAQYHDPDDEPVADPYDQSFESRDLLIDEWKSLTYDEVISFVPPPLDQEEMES

IC50	SMILES
62 nM	CC(C)(C)c1nnc2ccc(Sc3ccc(F)cc3F)cn12
16 nM	Cc1ccc(C(=O)NC2CC2)cc1-c1ccn2c(C(C)(C)C)nnc2c1
6.2 nM	Cc1c(F)cc(C(=O)NC2CC2)cc1-c1c(F)cn2c(C(C)(C)C)nnc2c1F
85 nM	Cc1c(F)cc(C(=O)NC2CC2)cc1-c1ccn2c(C(F)(F)F)nnc2c1
102 nM	Cc1c(F)cc(C(=O)NC2CC2)cc1-c1ccn2c(C(N)=O)nnc2c1
15.4 nM	Cc1c(F)cc(C(=O)NC2CC2)cc1-c1ccn2c(C(C)(C)N)nnc2c1
9.4 nM	COC(C)(C)c1nnc2cc(-c3cc(C(=O)NC4CC4)cc(F)c3C)ccn12
253 nM	CC(=O)NC(C)(C)c1nnc2cc(-c3cc(C(=O)NC4CC4)cc(F)c3C)ccn12
1.7 nM	Cc1c(F)cc(C(=O)NC2CC2)cc1-c1ccn2c(C(C)(C)N(C)C)nnc2c1
3.1 nM	Cc1c(F)cc(C(=O)NC2CC2)cc1-c1ccn2c(C(C)(C)O)nnc2c1
49 nM	Cc1ccc(C(=O)NC2CC2)cc1-c1c(F)cn2c(C(C)(C)C)nnc2c1F
6.7 nM	Cc1c(F)cc(C(=O)NC2CC2)cc1-c1c(F)cn2c(C(C)C)nnc2c1F
10 nM	Cc1c(F)cc(C(=O)NC2CC2)cc1-c1c(F)cn2c(C3CC3)nnc2c1F
23 nM	Cc1c(F)cc(C(=O)NC2CC2)cc1-c1c(F)cn2c(-c3ccncc3Cl)nnc2c1F
12 nM	Cc1c(F)cc(C(=O)NC2CC2)cc1-c1c(F)cn2c(C(C)(C)N)nnc2c1F
15 nM	Cc1c(F)cc(C(=O)NC2CC2)cc1-c1c(F)cn2c(C(C)(C)N(C)C)nnc2c1F
14 nM	Cc1ccc(C(=O)NC2CC2)cc1-c1ccc2c(N3CCCCC3)noc2c1
2 nM	Cc1c(F)cc(C(=O)NC2CC2)cc1-c1ccn2c(C(C)(C)C)nnc2c1

IC50	SMILES
27 nM	Cc1ccc(C(=O)NC2CC2)cc1-c1ccn2c(C(C)C)nnc2c1
3 nM	Cc1c(F)cc(C(=O)NC2CC2)cc1-c1ccn2c(C(C)C)nnc2c1
12 nM	Cc1ccc(C(=O)NC2CC2)cc1-c1ccn2c(C3(C)CC3)nnc2c1
0.64 nM	Cc1c(F)cc(C(=O)NC2CC2)cc1-c1ccn2c(C3(C)CC3)nnc2c1
20 nM	Cc1ccc(C(=O)NC2CC2)cc1-c1ccn2c(C3CCC3)nnc2c1
1.9 nM	Cc1c(F)cc(C(=O)NC2CC2)cc1-c1ccn2c(C3CCC3)nnc2c1
56 nM	Cc1ccc(C(=O)NC2CC2)cc1-c1ccn2c(C3CCOCC3)nnc2c1
30 nM	Cc1c(F)cc(C(=O)NC2CC2)cc1-c1ccn2c(C3CCOCC3)nnc2c1
6.3 nM	Cc1ccc(C(=O)NC2CC2)cc1-c1ccn2c(-c3ccccc3Cl)nnc2c1
1.6 nM	Cc1c(F)cc(C(=O)NC2CC2)cc1-c1ccn2c(-c3ccccc3Cl)nnc2c1
38 nM	Cc1ccc(C(=O)NC2CC2)cc1-c1ccn2c(-c3ccncc3Cl)nnc2c1
0.83 nM	Cc1c(F)cc(C(=O)NC2CC2)cc1-c1ccn2c(-c3ccncc3Cl)nnc2c1
43 nM	COC(C)c1nnc2cc(-c3cc(C(=O)NC4CC4)ccc3C)ccn12 (stereo not given)
18 nM	COC(C)c1nnc2cc(-c3cc(C(=O)NC4CC4)cc(F)c3C)ccn12 (stereo not given)
853 nM	Cc1ccc(C(=O)NC2CC2)cc1-c1ccn2c(C(F)(F)F)nnc2c1
6.7 nM	Cc1c(F)cc(C(=O)NC2CC2)cc1-c1ccn2c(C3CC3)nnc2c1
17 nM	Cc1c(F)cc(C(=O)NC2CC2)cc1-c1ccn2c(C(C)(C)NS(C)(=O)=O)nnc2c1
